IC50 data for two compounds are collected here from BindingDB's records for doi:10.1021/acs.jmedchem.9b01283 (Pharmaxis, 2019).

Bounds are passed on as bounds.

The target in this assay is Diamine oxidase AOC1 (Homo sapiens). Description: Inhibition of recombinant human DAO using putrescine as substrate preincubated with enzyme for 30 mins followed by substrate addition and measured every 2.5 mins for 30 mins by Amplex-Red oxidation assay.

In general, IC50 refers to the midpoint of a concentration-inhibition curve. On to `Cc1c(-c2cccc(S(=O)(=O)N(C)C)c2)c2ccccc2n1CC(F)=CCN`, for which the IC50 is 3.98 µM.

As to `Cc1c(-c2cccc(S(=O)(=O)N(C)C)c2)c2cc(C(=O)O)ccc2n1CC(F)=CCN`, the IC50 is over 10 µM.
